Experimental data as given in patent publication US9346815B2, “5-chloro-2-difluoromethoxyphenyl pyrazolopyrimidine compounds, compositions and methods of use thereof” (Genentech, Inc., priority 2014, dated 2016).
Like-named read-outs stand apart in the source and are kept apart here.

Assays:
[1] = test system: JAK1-dependent STAT6 phosphorylation downstream of IL-13 stimulation in TF-1 human erythroleukemia cells; test: JAK1 pathway assay in TF-1 cells (IL-13-pSTAT6, MSD); format: cell-based; details: read-out: IL13-pSTAT6 EC50_TF-1
Procedure, shortened: (§1)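 TF-1 cells starved of GM-CSF overnight, assayed serum-free; BEAS-2B cells in complete growth medium. Lysate pSTAT6 measured by MSD; EC50 derived.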

[2] = biological target: isolated recombinant JAK1 kinase domain (Homo sapiens (Human), UniProt P23458); test: JAK1 enzyme assay (Caliper LabChip, peptide phosphorylation); format: biochemical; details: isolated recombinant JAK1 kinase domain, 25 μM ATP
Chain of isolated recombinant JAK1 kinase domain (P23458 875-1153): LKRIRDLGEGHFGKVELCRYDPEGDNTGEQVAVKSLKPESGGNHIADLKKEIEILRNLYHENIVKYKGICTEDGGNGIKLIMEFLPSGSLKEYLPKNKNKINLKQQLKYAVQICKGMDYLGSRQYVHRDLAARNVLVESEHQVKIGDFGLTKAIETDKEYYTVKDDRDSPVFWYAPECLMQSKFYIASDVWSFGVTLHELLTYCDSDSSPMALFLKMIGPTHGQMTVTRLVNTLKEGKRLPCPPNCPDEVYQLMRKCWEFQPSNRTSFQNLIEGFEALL

[3] = test system: JAK1-dependent STAT6 phosphorylation downstream of IL-13 stimulation in BEAS-2B human bronchial epithelial cells; test: JAK1 pathway assay in BEAS-2B cells (IL-13-pSTAT6, MSD); format: cell-based; details: read-out: IL13-pSTAT6 EC50 (uM)_BEAS-2B
Procedure, shortened: as §1

[4] = biological target: isolated recombinant JAK2 kinase domain (Homo sapiens (Human), UniProt O60674); test: JAK2 enzyme assay (Caliper LabChip, peptide phosphorylation); format: biochemical; details: 25 μM ATP
Chain of isolated recombinant JAK2 kinase domain (O60674 849-1124): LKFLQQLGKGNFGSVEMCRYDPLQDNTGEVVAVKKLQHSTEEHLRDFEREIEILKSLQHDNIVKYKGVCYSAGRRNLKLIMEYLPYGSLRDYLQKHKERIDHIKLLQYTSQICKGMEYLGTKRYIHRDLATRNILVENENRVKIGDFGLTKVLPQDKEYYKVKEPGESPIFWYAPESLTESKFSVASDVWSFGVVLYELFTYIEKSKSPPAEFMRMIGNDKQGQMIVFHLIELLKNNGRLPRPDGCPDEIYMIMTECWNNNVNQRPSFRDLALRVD

Row | Structure (SMILES) | EC50 ([1]; TF-1 cells) [nM] | Ki [2] [nM] | Ki [4] [nM] | EC50 ([1]; Homo sapiens, TF-1, TF-1 cells) [nM] | EC50 [3] [µM]
1 | CN1CC[C@H]2[C@H](CCN2C(=O)Cn2cc(NC(=O)c3cnn4cccnc34)c(-c3cc(Cl)ccc3OC(F)F)n2)C1 [Example 48, N-[1-[2-[(3aR,7aS)-5-methyl-3,3a,4,6,7,7a-hexahydro-2H-pyrrolo[3,2-c]pyridin-1-yl]-2-oxo-ethyl]-3-[5-chloro-2-(difluoromethoxy)phenyl]pyrazol-4-yl]pyrazolo[1,5-a]pyrimidine-3-carboxamide] | – | 0.94 | 1.85 | 13.7 | 0.0594
2 | CN1CC[C@H]2[C@@H](CCN2C(=O)Cn2cc(NC(=O)c3cnn4cccnc34)c(-c3cc(Cl)ccc3OC(F)F)n2)C1 [Example 62, N-[1-[2-[(3aS,7aS)-5-methyl-3,3a,4,6,7,7a-hexahydro-2H-pyrrolo[3,2-c]pyridin-1-yl]-2-oxo-ethyl]-3-[5-chloro-2-(difluoromethoxy)phenyl]pyrazol-4-yl]pyrazolo[1,5-a]pyrimidine-3-carboxamide] | – | 2.07 | 2.68 | 55.8 | 0.0892
3 | CNC1CCN(C(=O)Cn2cc(NC(=O)c3cnn4cccnc34)c(-c3cc(Cl)ccc3OC(F)F)n2)CC1 [Example 83, N-[3-[5-chloro-2-(difluoromethoxy)phenyl]-1-[2-[4-(methylamino)-1-piperidyl]-2-oxo-ethyl]pyrazol-4-yl]pyrazolo[1,5-a]pyrimidine-3-carboxamide] | – | 1.07 | 1.59 | 42.3 | 0.143
4 | CN(CCc1ccc(Cl)cc1)C1CCN(C(=O)Cn2cc(NC(=O)c3cnn4cccnc34)c(-c3cc(Cl)ccc3OC(F)F)n2)CC1 [Example 94, N-[3-[5-chloro-2-(difluoromethoxy)phenyl]-1-[2-[4-[2-(4-chlorophenyl)ethyl-methyl-amino]-1-piperidyl]-2-oxo-ethyl]pyrazol-4-yl]pyrazolo[1,5-a]pyrimidine-3-carboxamide] | – | 1.2 | 2.07 | 42.4 | 0.0931
5 | Cc1ccc(OCCN(C)C2CCN(C(=O)Cn3cc(NC(=O)c4cnn5cccnc45)c(-c4cc(Cl)ccc4OC(F)F)n3)CC2)cc1 [Example 110, N-[3-[5-chloro-2-(difluoromethoxy)phenyl]-1-[2-[4-[methyl-[2-(4-methylphenoxy)ethyl]amino]-1-piperidyl]-2-oxo-ethyl]pyrazol-4-yl]pyrazolo[1,5-a]pyrimidine-3-carboxamide] | – | 1.04 | 2.03 | 8.9 | 0.0875
6 | O=C(Nc1cn(CC(=O)N2CCC(N(CCC(F)(F)F)Cc3ccccc3)CC2)nc1-c1cc(Cl)ccc1OC(F)F)c1cnn2cccnc12 [Example 118, N-[1-[2-[4-[benzyl(3,3,3-trifluoropropyl)amino]-1-piperidyl]-2-oxo-ethyl]-3-[5-chloro-2-(difluoromethoxy)phenyl]pyrazol-4-yl]pyrazolo[1,5-a]pyrimidine-3-carboxamide] | – | 2.57 | 4.45 | 100 | 0.303
7 | CN(CCCc1ccccc1)C1CCN(C(=O)Cn2cc(NC(=O)c3cnn4cccnc34)c(-c3cc(Cl)ccc3OC(F)F)n2)CC1 [Example 123, N-[3-[5-chloro-2-(difluoromethoxy)phenyl]-1-[2-[4-[methyl(3-phenylpropyl)amino]-1-piperidyl]-2-oxo-ethyl]pyrazol-4-yl]pyrazolo[1,5-a]pyrimidine-3-carboxamide] | – | 2.23 | 1.63 | 7.6 | 0.0487
8 | CN(CCC#N)C1CCN(c2nc(-c3cc(Cl)ccc3OC(F)F)c(NC(=O)c3cnn4cccnc34)s2)CC1 [Example 189, Pyrazolo[1,5-a]pyrimidine-3-carboxylic acid (4-(5-chloro-2-difluoromethoxy-phenyl)-2-{4-[(2-cyano-ethyl)-methyl-amino]-piperidin-1-yl}-thiazol-5-yl)-amide] | – | 2.59 | 1.61 | 5.3 | 0.02
9 | CN(C)CC1CCN(c2nc(-c3cc(Cl)ccc3OC(F)F)c(NC(=O)c3cnn4cccnc34)s2)CC1 [Example 190, N-[4-[5-chloro-2-(difluoromethoxy)phenyl]-2-[4-[(dimethylamino)methyl]-1-piperidyl]thiazol-5-yl]pyrazolo[1,5-a]pyrimidine-3-carboxamide] | – | 2.69 | 2.02 | 14.6 | 0.0098
10 | CN(CC1(C)COC1)C1CCN(c2nc(-c3cc(Cl)ccc3OC(F)F)c(NC(=O)c3cnn4cccnc34)s2)CC1 [Example 200, N-[4-[5-chloro-2-(difluoromethoxy)phenyl]-2-[4-[methyl-[(3-methyloxetan-3-yl)methyl]amino]-1-piperidyl]thiazol-5-yl]pyrazolo[1,5-a]pyrimidine-3-carboxamide] | – | 1.24 | 1.07 | 5.9 | 0.0254
11 | CN(CC1(C#N)CCCCC1)C1CCN(C(=O)C2CCN(c3nc(-c4cc(Cl)ccc4OC(F)F)c(NC(=O)c4cnn5cccnc45)s3)CC2)CC1 [Example 204, N-[4-[5-chloro-2-(difluoromethoxy)phenyl]-2-[4-[4-[(1-cyanocyclohexyl)methyl-methyl-amino]piperidine-1-carbonyl]-1-piperidyl]thiazol-5-yl]pyrazolo[1,5-a]pyrimidine-3-carboxamide] | – | 2 | 1.41 | 7.9 | 0.172

Now those with a lower Ki [2], led by results:

Row | EC50 ([1]; TF-1 cells) [nM] | Ki [2] [nM] | Ki [4] [nM] | EC50 ([1]; Homo sapiens, TF-1, TF-1 cells) [nM] | Structure (SMILES) | EC50 [3] [µM]
12 | 7.1 | 0.74 | 1.78 | – | CN1CC[C@@H]2[C@@H](CCN2C(=O)Cn2cc(NC(=O)c3cnn4cccnc34)c(-c3cc(Cl)ccc3OC(F)F)n2)C1 [Example 45, N-[1-[2-[(3aS,7aR)-5-methyl-3,3a,4,6,7,7a-hexahydro-2H-pyrrolo[3,2-c]pyridin-1-yl]-2-oxo-ethyl]-3-[5-chloro-2-(difluoromethoxy)phenyl]pyrazol-4-yl]pyrazolo[1,5-a]pyrimidine-3-carboxamide] | 0.0245
13 | – | 0.65 | 0.62 | 5.4 | O=C(Nc1cn(CC(=O)N2C[C@H]3CN(CC4CCCCC4)C[C@H]3C2)nc1-c1cc(Cl)ccc1OC(F)F)c1cnn2cccnc12 [Example 52, N-[1-[2-[(3aR,6aS)-2-(cyclohexylmethyl)-1,3,3a,4,6,6a-hexahydropyrrolo[3,4-c]pyrrol-5-yl]-2-oxo-ethyl]-3-[5-chloro-2-(difluoromethoxy)phenyl]pyrazol-4-yl]pyrazolo[1,5-a]pyrimidine-3-carboxamide] | 0.0388
14 | – | 0.23 | 0.68 | 27.5 | CN1CC[C@@H]2[C@H](CCN2C(=O)Cn2cc(NC(=O)c3cnn4cccnc34)c(-c3cc(Cl)ccc3OC(F)F)n2)C1 [Example 61, N-[1-[2-[(3aR,7aR)-5-methyl-3,3a,4,6,7,7a-hexahydro-2H-pyrrolo[3,2-c]pyridin-1-yl]-2-oxo-ethyl]-3-[5-chloro-2-(difluoromethoxy)phenyl]pyrazol-4-yl]pyrazolo[1,5-a]pyrimidine-3-carboxamide] | 0.0324
15 | – | 0.4 | 0.73 | 15.4 | N#CCCNC1CCN(C(=O)Cn2cc(NC(=O)c3cnn4cccnc34)c(-c3cc(Cl)ccc3OC(F)F)n2)CC1 [Example 87, N-[3-[5-chloro-2-(difluoromethoxy)phenyl]-1-[2-[4-(2-cyanoethylamino)-1-piperidyl]-2-oxo-ethyl]pyrazol-4-yl]pyrazolo[1,5-a]pyrimidine-3-carboxamide] | 0.014
16 | – | 0.51 | 1.13 | 8.6 | CC1(CN(CCC(F)(F)F)C2CCN(C(=O)Cn3cc(NC(=O)c4cnn5cccnc45)c(-c4cc(Cl)ccc4OC(F)F)n3)CC2)COC1 [Example 117, N-[3-[5-chloro-2-(difluoromethoxy)phenyl]-1-[2-[4-[(3-methyloxetan-3-yl)methyl-(3,3,3-trifluoropropyl)amino]-1-piperidyl]-2-oxo-ethyl]pyrazol-4-yl]pyrazolo[1,5-a]pyrimidine-3-carboxamide] | 0.0546
17 | – | 0.57 | 1.27 | 3.1 | O=C(Nc1cn(CC(=O)N2CCC(NC(c3ccccc3)C(F)(F)F)CC2)nc1-c1cc(Cl)ccc1OC(F)F)c1cnn2cccnc12 (stereo not shown) [Example 132, N-[3-[5-chloro-2-(difluoromethoxy)phenyl]-1-[2-oxo-2-[4-[(2,2,2-trifluoro-1-phenyl-ethyl)amino]-1-piperidyl]ethyl]pyrazol-4-yl]pyrazolo[1,5-a]pyrimidine-3-carboxamide] | 0.0973
18 | – | 0.54 | 0.17 | 12.8 | CC(=O)N1CCC(N2CCC(n3cc(NC(=O)c4c(N)nn5cccnc45)c(-c4cc(Cl)ccc4OC(F)F)n3)CC2)CC1 [Example 144, N-[1-[1-(1-acetyl-4-piperidyl)-4-piperidyl]-3-[5-chloro-2-(difluoromethoxy)phenyl]pyrazol-4-yl]-2-amino-pyrazolo[1,5-a]pyrimidine-3-carboxamide] | 0.0213
19 | – | 0.81 | 0.2 | 8.3 | CNC(=O)CCCN1CCC(n2cc(NC(=O)c3c(N)nn4cccnc34)c(-c3cc(Cl)ccc3OC(F)F)n2)CC1 [Example 149, 2-amino-N-[3-[5-chloro-2-(difluoromethoxy)phenyl]-1-[1-[4-(methylamino)-4-oxo-butyl]-4-piperidyl]pyrazol-4-yl]pyrazolo[1,5-a]pyrimidine-3-carboxamide] | 0.0198
